{"source": "patent US11793824B2", "about": "“Administration of nicotinamide mononucleotide in the treatment of disease” (Washington University, priority 2013, dated 2023)", "key": {"[1]": {"assay": "Stability of NMN in drinking water", "assay_type": "physicochemical"}, "[2]": {"assay": "Insulin tolerance test in old mice", "assay_type": "in vivo, mouse", "settings": "100 and 300 mg/kg groups, body weight-matched, 12-month time point, 17 month-old mice", "method": "A 12 month-long NMN administration study using wild-type mice under a regular chow-fed condition was conducted. NMN was administered through drinking water, and two doses of NMN, 100 and 300 mg/kg body weight/day, were tested. […] To assess beneficial and possible adverse effects of NMN, a variety of physiological parameters were periodically monitored, including body weight, body temperature, food and water intake, fed and fasted blood glucose levels, fed and fasted plasma lipid panels, and glucose and insulin tolerance, in NMN-administered and control mice. Blood chemistry, blood cell counts, urine strip test, and other physiological tests including physical activity test were also checked.\n(See Methods; Administration of NMN through Drinking Water and Determination of NMN Stability and Toxicity). As illustrated in FIG. 9A-B, insulin tolerance results from body weight-matched mice in the control and the 100 and 300 mg/kg NMN-administered groups at the 12-month time point are presented. Blood glucose levels (FIG. 9A) and percent glucose changes (FIG. 9B) after insulin injection are shown. The results were analyzed with two-way RANOVA and one-way ANOVA. All values are presented as mean±SEM (n=10-15 for each group)."}, "NSPCs": {"tested_on": "NSPCs", "assay": "NSPC pool in the dentate gyrus after long-term NMN in drinking water", "assay_type": "in vivo, mouse", "method": "All tissue sections were and cells incubated in blocking/permeabilization solution containing 10% normal goat serum, 1% BSA, and 0.3% Triton-X in PBS for 45 to 60 min prior to 24 or 48 h of incubation with primary antibodies in 5% normal goat serum and 0.1% Triton-X in PBS at 4° C. at the concentrations listed below. […], Alexa488, or Cy3 conjugated-secondary antibodies diluted in 2% normal goat serum, 1% BSA, and 0.1% Triton-X in PBS were added for 2 h at room temperature. Nuclei were stained with 4,6-diamidino-2-phenylindole (Sigma) for 10 min at room temperature.\nCells were harvested by fixation with 4% paraformaldehyde in PBS (15 min). Mice were anesthetized by i.p. injection of ketamine and xylazine, and perfused transcardially through left ventricle with cold 0.1 M phosphate buffer at pH 7.4 followed by a phosphate-buffered solution of 4% paraformaldehyde (PFA). Brains were postfixed with 4% PFA overnight and placed into 15% sucrose followed by 30% sucrose, frozen, and stored at −80° C. until use. Coronal sections (30 μm) were made by cryostat in a 1 in 8 series and stored at −30° C. in cryoprotectant until use. To remove any endogenous peroxidase activity, all sections were incubated with 3% H2O2 for 10 min. […]\nFor tissue sections, high-magnification (20×, 0.8DICII or 40× oil 1.3DICII) microscopic imaging was performed using a Zeiss Axioimage.Z1. […] Quantification was performed blinded to genotype on 3-8 tissue sections per animal. Cell densities were estimated by the number of immunoreactive cells divided by the area of the structure, measured with ImageJ. […] Quantification was performed blinded to genotype on 2 to 3 fields of view per sample and treatment, from 3 to 9 independent samples.\nThe inventors hypothesized that systemic administration of NMN may be able to correct age-associated defects in NSPC functionality. […] Quantification of Ki67+ (H) and Dcx+ (I) cells in the DG per unit area of the DG (n=5). […]"}, "NAMPT rod-CKO mice": {"tested_on": "NAMPT rod-CKO mice", "assay": "ERG rescue in NAMPT rod-CKO mice", "assay_type": "in vivo, mouse", "excerpt": "The inventors examined the effect of selectively disrupting NAD biosynthesis within PR. The inventors utilized the cre-lox strategy to generate mice that had NAMPT conditionally deleted from either rods (NAMPT rod-CKO) or cones (NAMPT cone-CKO). The NAMPT fl/fl mice as well as the rhodopsin-cre and cone opsin-cre mice have been previously characterized. Both rod and cone cko mice are generated with normal Mendelian frequencies and are born normal with no observable systemic abnormalities (data not shown). All structural and functional analyses performed in CKO mice are analyzed in comparison to littermate controls. Rods constitute a majority of the PR neurons (97% of all photoreceptors). […] Neurosensory retinal degeneration was associated with secondary atrophy and pallor of the optic nerve (FIG. 29C).\nThe present inventors determined that exogenous supplementation with NMN is able to rescue PR neurons from cell death in CKO mice. Intraperitoneal (i.p.) delivery was chosen to obtain early and sustained levels of NMN. In these experiments, NAMPT rod-CKO mice were given NMN (150 mg/kg) or PBS i.p. daily starting at day P5. […] There was no effect of NMN on littermate control animals."}, "[3]": {"settings": "NMN in drinking water from 6 to 18 months of age"}}, "note": "“Also recorded” adds a separate entry of the source."}
{"smiles": "NC(=O)c1ccc[n+]([C@@H]2O[C@H](COP(=O)([O-])O)[C@@H](O)[C@H]2O)c1", "note": "[NMN, nicotinamide mononucleotide]", "values": [{"measurement": "stability of NMN in drinking water", "setting": "[1]; in solution", "result": "stable in solution"}, {"measurement": "degradation of NMN in drinking water", "setting": "[1]; room temperature", "result": "No significant degradation"}, {"measurement": "insulin sensitivity (insulin tolerance test)", "setting": "[2]", "result": "significantly enhanced insulin sensitivity"}, {"measurement": "Type 1 (radial Nestin+) NSPC population with age", "setting": "NSPCs; 300 mg/kg body weight in drinking water from 6 to 18 months of age", "result": "improved maintenance; also recorded: able to maintain the NSPC pool"}, {"measurement": "population of newborn neurons (Dcx+) in the DG", "setting": "NSPCs; [3]", "result": "trended to increase"}, {"measurement": "population of proliferating cells (Ki67+) in the DG", "setting": "NSPCs; [3]", "result": "remained similar to controls"}, {"measurement": "effect on littermate control animals", "setting": "NAMPT rod-CKO mice; NMN 150 mg/kg i.p. daily", "result": "no effect"}, {"measurement": "photopic and scotopic function (ERG)", "setting": "NAMPT rod-CKO mice; NMN 150 mg/kg i.p. daily from P5, ERG at 4 weeks, vs PBS", "result": "significant rescue"}]}
